Several values for one entry are separate records, joined by “and”; a condition that tells them apart may be missing. Equal entries are not always repeated.
Legend:
Alpha1B = biological target: T1, Alpha1B (Homo sapiens, UniProt P35368); test: NIMH PDSP receptor binding, Alpha1B; details: [3H]Prazosin, read-out: % Inhibition of Binding at 10 µM D-473
T1 construct: purchased NIMH PDSP

hSERT = hSERT (Homo sapiens, UniProt P31645); test: Inhibition of [3H]5-HT uptake by cloned human SERT in HEK293 cells
Chain of hSERT (P31645 whole entry): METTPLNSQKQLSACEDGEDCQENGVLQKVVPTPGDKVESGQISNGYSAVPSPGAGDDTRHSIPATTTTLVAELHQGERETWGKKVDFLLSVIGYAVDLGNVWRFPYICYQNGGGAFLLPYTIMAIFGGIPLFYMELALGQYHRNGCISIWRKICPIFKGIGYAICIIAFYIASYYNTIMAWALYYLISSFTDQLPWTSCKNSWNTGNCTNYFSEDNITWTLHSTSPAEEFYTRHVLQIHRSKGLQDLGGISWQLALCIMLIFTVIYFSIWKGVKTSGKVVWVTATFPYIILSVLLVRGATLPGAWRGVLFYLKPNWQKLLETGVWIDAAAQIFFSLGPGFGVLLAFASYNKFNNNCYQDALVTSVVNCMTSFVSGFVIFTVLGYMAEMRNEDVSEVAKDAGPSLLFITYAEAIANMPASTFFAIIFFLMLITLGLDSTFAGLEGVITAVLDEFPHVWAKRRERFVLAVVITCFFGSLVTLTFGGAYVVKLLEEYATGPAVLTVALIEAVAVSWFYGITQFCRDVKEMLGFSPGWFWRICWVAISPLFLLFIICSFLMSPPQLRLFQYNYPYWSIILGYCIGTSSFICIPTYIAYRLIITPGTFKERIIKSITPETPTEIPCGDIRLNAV

5HT3 = biological target: T2, 5HT3 (Homo sapiens, UniProt P46098); test: NIMH PDSP receptor binding, 5HT3; details: [3H] LY 278,584, read-out: % Inhibition of Binding at 10 µM D-473
T2 construct: purchased NIMH PDSP
T2 sequence (P46098 24-478): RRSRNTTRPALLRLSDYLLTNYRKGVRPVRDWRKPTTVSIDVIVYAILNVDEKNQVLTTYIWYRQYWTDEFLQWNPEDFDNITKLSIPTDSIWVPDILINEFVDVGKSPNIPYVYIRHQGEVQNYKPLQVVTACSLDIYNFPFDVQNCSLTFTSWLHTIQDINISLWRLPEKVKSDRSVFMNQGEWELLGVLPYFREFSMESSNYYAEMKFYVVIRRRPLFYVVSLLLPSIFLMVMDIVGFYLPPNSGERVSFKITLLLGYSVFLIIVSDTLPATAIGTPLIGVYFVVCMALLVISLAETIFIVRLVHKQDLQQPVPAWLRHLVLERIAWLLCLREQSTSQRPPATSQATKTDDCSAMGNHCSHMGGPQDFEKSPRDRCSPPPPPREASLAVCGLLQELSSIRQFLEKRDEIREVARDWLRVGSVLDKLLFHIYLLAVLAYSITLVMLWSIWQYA

hDAT = hDAT (Homo sapiens, UniProt Q01959); test: Inhibition of [3H]DA uptake by cloned human DAT in HEK293 cells; details: nM, HEK293 cells expressing hDAT, average±S.E.M., 3 to 10 determinations
Chain of hDAT (Q01959 whole entry): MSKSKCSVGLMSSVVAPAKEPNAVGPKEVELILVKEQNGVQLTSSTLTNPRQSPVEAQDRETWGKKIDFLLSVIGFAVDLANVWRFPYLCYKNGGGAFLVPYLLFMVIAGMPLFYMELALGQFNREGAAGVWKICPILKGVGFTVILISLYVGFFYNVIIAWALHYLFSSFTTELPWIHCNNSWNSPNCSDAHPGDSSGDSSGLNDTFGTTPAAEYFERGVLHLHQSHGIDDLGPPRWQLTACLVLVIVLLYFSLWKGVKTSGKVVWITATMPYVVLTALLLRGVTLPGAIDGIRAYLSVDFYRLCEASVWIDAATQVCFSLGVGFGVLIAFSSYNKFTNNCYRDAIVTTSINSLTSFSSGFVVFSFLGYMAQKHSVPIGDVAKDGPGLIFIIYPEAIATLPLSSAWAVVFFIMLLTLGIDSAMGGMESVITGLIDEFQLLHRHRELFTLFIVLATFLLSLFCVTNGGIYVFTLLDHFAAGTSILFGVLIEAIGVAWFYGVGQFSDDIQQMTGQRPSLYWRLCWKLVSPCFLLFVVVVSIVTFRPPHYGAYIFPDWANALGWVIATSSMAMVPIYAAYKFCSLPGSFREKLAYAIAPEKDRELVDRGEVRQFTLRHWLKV

M1 = biological target: T3, M1 (Homo sapiens, UniProt P11229); test: biochemical; details: read-out: % Inhibition of Binding at 10 µM D-473
T3 construct: purchased NIMH PDSP
T3 sequence (P11229 whole entry): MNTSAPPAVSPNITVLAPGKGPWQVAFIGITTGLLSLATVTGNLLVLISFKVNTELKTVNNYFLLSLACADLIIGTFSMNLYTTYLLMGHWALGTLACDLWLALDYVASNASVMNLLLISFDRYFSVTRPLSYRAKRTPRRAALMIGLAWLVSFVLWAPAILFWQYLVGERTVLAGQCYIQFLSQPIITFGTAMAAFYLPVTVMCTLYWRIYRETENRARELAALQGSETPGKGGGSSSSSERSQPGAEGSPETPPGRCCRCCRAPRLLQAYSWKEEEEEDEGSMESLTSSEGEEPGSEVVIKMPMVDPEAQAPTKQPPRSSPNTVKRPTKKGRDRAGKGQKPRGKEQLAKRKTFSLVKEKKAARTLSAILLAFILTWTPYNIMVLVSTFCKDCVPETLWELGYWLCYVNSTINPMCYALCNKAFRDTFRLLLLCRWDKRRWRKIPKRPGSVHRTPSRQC

H1 = biological target: T4, H1 (Homo sapiens, UniProt P35367); test: NIMH PDSP receptor binding, H1; details: [3H]Pyrilamine, read-out: % Inhibition of Binding at 10 µM D-473
T4 construct: purchased NIMH PDSP
T4 sequence (P35367 whole entry): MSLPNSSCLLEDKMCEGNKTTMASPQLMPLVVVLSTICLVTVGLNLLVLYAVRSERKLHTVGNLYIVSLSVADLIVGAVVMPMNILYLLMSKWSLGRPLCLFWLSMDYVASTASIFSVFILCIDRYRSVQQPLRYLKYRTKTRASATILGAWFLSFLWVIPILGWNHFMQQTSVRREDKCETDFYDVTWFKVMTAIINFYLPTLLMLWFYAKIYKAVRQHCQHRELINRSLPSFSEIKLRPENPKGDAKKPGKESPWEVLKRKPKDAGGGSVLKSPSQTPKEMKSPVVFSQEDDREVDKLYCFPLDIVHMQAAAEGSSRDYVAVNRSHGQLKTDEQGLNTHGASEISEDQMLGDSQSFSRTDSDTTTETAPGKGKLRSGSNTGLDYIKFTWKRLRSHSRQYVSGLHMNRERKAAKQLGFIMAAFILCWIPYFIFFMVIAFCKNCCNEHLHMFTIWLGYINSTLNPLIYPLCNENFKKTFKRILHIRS

5HT5a = biological target: T5, 5HT5a (Homo sapiens, UniProt P47898); test: NIMH PDSP receptor binding, 5HT5a; details: [3H]LSD, read-out: % Inhibition of Binding at 10 µM D-473
T5 construct: purchased NIMH PDSP
T5 sequence (P47898 whole entry): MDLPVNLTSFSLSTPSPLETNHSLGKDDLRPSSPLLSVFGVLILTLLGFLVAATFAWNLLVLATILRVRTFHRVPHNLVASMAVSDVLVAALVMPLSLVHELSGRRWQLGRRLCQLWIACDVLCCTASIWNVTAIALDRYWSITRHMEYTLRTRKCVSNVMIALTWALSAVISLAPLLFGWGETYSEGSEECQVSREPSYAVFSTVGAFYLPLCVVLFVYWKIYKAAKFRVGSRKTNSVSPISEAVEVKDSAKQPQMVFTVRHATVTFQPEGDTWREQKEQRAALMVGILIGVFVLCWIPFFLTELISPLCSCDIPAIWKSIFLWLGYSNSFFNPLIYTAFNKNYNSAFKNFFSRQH

5HT1d = biological target: T6, 5HT1d (Homo sapiens, UniProt P28221); test: NIMH PDSP receptor binding, 5HT1d; details: [3H]GR-125743, read-out: % Inhibition of Binding at 10 µM D-473
T6 construct: purchased NIMH PDSP
T6 sequence (P28221 whole entry): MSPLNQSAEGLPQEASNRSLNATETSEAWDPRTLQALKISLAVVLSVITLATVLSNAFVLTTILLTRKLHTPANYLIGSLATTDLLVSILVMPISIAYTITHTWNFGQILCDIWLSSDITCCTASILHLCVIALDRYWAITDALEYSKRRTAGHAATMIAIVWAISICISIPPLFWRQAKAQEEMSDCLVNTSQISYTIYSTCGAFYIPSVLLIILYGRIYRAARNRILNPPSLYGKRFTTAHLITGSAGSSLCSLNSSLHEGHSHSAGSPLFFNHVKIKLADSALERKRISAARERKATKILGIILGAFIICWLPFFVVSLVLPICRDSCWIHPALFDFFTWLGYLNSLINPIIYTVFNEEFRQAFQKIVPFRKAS

M4 = biological target: T7, M4 (Homo sapiens, UniProt P08173); test: biochemical; details: read-out: % Inhibition of Binding at 10 µM D-473
T7 construct: purchased NIMH PDSP
T7 sequence (P08173 whole entry): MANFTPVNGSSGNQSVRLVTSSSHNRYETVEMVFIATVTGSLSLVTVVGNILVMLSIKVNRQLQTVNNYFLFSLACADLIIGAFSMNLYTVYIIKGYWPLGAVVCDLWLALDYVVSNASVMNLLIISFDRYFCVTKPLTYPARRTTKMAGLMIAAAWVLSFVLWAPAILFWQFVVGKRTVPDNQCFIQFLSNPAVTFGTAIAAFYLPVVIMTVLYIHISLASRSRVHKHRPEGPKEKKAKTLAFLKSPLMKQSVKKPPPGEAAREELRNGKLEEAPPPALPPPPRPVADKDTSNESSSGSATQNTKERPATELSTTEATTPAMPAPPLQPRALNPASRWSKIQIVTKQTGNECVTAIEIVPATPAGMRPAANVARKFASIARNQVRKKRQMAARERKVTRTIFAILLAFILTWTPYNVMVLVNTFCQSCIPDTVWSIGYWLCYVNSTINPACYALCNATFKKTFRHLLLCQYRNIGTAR

[1] = test system: CNS GPCR receptors and ion channels; test: CNS broad receptors screening, summary statements by receptor family; format: binding
GABA A = test: NIMH PDSP receptor binding, GABA A; details: [3H]Muscimol
Alpha2B = biological target: T8, Alpha2B (Homo sapiens, UniProt P18089); test: NIMH PDSP receptor binding, Alpha2B; details: [3H]Clonidine, read-out: % Inhibition of Binding at 10 µM D-473
T8 construct: purchased NIMH PDSP

hNET = hNET (Homo sapiens, UniProt P23975); test: Inhibition of [3H]DA uptake by cloned human NET in HEK293 cells
Chain of hNET (P23975 whole entry): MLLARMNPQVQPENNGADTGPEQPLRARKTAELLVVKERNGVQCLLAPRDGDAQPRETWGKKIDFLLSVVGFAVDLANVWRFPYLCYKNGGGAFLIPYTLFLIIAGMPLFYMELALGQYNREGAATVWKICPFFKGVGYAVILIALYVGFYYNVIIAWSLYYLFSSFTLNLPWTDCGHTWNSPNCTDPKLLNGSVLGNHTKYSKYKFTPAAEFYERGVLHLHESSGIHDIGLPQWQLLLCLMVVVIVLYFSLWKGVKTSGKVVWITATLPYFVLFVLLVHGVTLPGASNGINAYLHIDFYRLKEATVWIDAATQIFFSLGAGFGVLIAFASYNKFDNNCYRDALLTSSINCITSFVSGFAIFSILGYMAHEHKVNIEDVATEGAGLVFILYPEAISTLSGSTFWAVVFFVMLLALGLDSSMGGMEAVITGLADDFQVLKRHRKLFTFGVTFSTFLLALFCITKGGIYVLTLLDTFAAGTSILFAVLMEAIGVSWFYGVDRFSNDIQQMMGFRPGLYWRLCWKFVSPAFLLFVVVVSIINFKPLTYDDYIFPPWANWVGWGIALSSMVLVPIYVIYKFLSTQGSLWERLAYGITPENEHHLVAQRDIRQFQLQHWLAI

5HT7 = biological target: T9, 5HT7 (Homo sapiens, UniProt P34969); test: NIMH PDSP receptor binding, 5HT7; details: [3H]LSD, read-out: % Inhibition of Binding at 10 µM D-473
T9 construct: purchased NIMH PDSP
T9 sequence (P34969 whole entry): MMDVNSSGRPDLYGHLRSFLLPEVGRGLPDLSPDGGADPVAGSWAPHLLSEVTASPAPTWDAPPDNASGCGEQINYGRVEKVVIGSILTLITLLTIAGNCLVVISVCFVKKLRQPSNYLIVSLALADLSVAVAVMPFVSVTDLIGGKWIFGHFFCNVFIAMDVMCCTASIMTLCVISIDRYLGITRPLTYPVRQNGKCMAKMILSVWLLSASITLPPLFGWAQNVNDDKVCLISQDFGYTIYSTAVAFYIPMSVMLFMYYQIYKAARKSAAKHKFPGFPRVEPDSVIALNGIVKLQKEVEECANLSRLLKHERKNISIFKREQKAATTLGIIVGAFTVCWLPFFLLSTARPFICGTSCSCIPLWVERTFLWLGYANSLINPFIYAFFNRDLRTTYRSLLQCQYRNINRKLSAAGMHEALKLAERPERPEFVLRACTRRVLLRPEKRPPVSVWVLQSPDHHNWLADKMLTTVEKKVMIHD

[2] = test system: locomotor activity (horizontal activity); test: Locomotor activity in rats; format: in vivo; details: rat; 25 mg/kg oral; 2 h post administration; vs vehicle
Method: Sprague Dawley Rats were tested at 25 mg/kg oral dose of D-473 to monitor changes in any locomotor activity in acrylic Auto-Track/Opto-Varimex-4 System (Columbus Instrument; Columbus, Ohio). The purpose was to evaluate locomotor activity of the same doses of drug that were used in the forced swim test. Rats were acclimated in the test chambers for 1 h prior to oral administration of D-473. Locomotor activity of the drug was measured for a total of two hour post administration of the drug which corresponded to the time of measurement in the forced swimming experiment. GBR 12909 was studied as a control drug known to stimulate and was administered i.p. as in published studies; vehicle was orally administered.

M3 = biological target: T10, M3 (Homo sapiens, UniProt P20309); test: biochemical; details: read-out: % Inhibition of Binding at 10 µM D-473
T10 construct: purchased NIMH PDSP

COc1ccc(CN[C@@H]2CO[C@H](C(c3ccc(F)cc3)c3ccc(F)cc3)C[C@H]2O)cc1 [Compound D-473, (2S,4R,5R)-2-(bis(4-fluorophenyl)methyl)-5-((4-methoxybenzyl)amino)tetrahydro-2H-pyran-4-ol]
inhibition at 10 µM (Alpha1B): 16.6% | Ki (hSERT): 9.18 ± 1.69 nM | Potency at SERT relative to Fluoxetine (hSERT; hSERT uptake inhibition): almost one and a half fold greater | inhibition at 10 µM (5HT3): 3.5% | Ki (hDAT): 70 nM and 70.4 nM | inhibition at 10 µM (M1): 15% | inhibition at 10 µM (H1): 2.8% | inhibition at 10 µM (5HT5a): 19.5% | inhibition at 10 µM (5HT1d): 39% | inhibition at 10 µM (M4): -16.7% | Affinity for alpha adrenergic or beta adrenergic receptors subtypes [1]: did not show any appreciable affinity | Affinity for muscarinic receptor subtypes [1]: Lack of any affinity | Affinity for opioid receptors, calcium channel and GABA receptor [1]: did not show any affinity | Ki ([1]; dopamine and serotonin receptor subtypes other than D1, D5, 5HT2b, read-out: Ki at dopamine and serotonin receptor subtypes (generally)): > 10000 nM | % Inhibition of Binding at 10 µM D-473 (GABA A): 5.1% | inhibition at 10 µM (Alpha2B): 25.4% | Ki (hNET; NET uptake, Ki, nM [3H]DA, HEK293 cells expressing hNET, average±S.E.M., 3 to 10 determinations): 39 nM and 39.7 nM | Activity at NET relative to DAT (hNET; hNET vs hDAT uptake inhibition): roughly two fold more potent | inhibition at 10 µM (5HT7): 41.4% | Locomotor activity (horizontal activity) [2]: statistically indistinguishable from vehicle | inhibition at 10 µM (M3): 6.9%

Reference: paper PMC4245125, “Pharmacological and Behavioral Characterization of D-473, an Orally Active Triple Reuptake Inhibitor Targeting Dopamine, Serotonin and Norepinephrine Transporters” (PLoS ONE, 2014)
